Measured values as given in EP0510719A1, “Benzimidazole derivatives substituted with a radical group and their use for inhibiting gastric acid secretion” (priority 1986, dated 1988).
Where a name gives a salt, the structure may show the parent alone. Read-outs that look alike come from different tables or passages of the source.

Key:
gastric acid secretion = assay: Inhibiting effect in vivo on gastric acid secretion in conscious dog (histamine-stimulated, chronic gastric fistula dog); settings: inhibition during the 2nd hour after dose
Description: Chronic gastric fistula dog were used. These dogs have been surgically provided with a gastric cannula in the stomach and a duodenal fistula, used for direct intraduodenal administration of test compounds. Following a 4 weeks' recovery period after surgery, tests were performed once a week on each dog. Food and water were withdrawn 18 hours before each test.
Gastric acid secretion was induced by a continuous 4 h infusion of histamine at individual doses (400-600 nmol/kg^.h,iv) resulting in approximately 90% of maximal secretion of gastric acid. After 1 h of histamine stimulation, test compounds or vehicle were administered, either iv or im (vehicle = 0.5% saline) or id (vehicle = 0.5% Methocel®, 90 HG 15000, Dow Chem Corp.) via a catheter through the duodenal fistula. The gastric juice was collected by free flow from the gastric cannula in consecutive 30 min. samples during the duration of the histamine infusion. The samples were titrated to pH 7.0 with 0.1 M or 1.0 M NaOH using an automatic titrator and the acid output was calculated. The acid output during the periods after administration of test compound or vehicle was expressed as the fraction of the output during the period preceding these administrations, and the per cent inhibition of acid secretion was calculated by comparing in each dog the fractional responses induced by the test compound to the corresponding vehicle-induced fractional responses.
The test results given in Table 5 below represent inhibition during the 2nd hour after dose.

Solubility in water = assay type: physicochemical
Description: By comparison, the sodium salt of omeprazole, 5-methoxy-2-[[(4-methoxy 3-5-dimethyl-pyridinyl)methyl] sulfinyl]-1-H-benzimidazole, has a solubility of 0.4 mg per ml at pH 9, a pH considered suitable for i.v. administration.

[1] = Chemical stability in aqueous buffer solution at different pH, followed kinetically; assay type: physicochemical
[2] = pH 5, 37°C, aqueous buffer solution, low concentration, read-out: t 1/2 (hours) pH 5 (converted)
[3] = pH 7.3, 37°C, aqueous buffer solution, low concentration, read-out: t 1/2 (hours) pH 7.3 (converted)

With `COc1c(C)cnc(C[S+]([O-])c2nc3ccccc3n2COC(=O)CCC(=O)N2CCN(C)CC2)c1C` (stereo not drawn) [Example 3] the “Inhibition of acid secretion (%)” value (gastric acid secretion; 0,3 μmol/kg iv) was 72 (1) %, the “Inhibition of acid secretion (%)” value (gastric acid secretion; 1 μmol/kg iv) was 98 (1) % and the “Inhibition of acid secretion (%)” value (gastric acid secretion; 2 μmol/kg id) was 100 (1) %. The solubility (Solubility in water; water) was over 60 mg/mL, the half-life [1, 2] was 112 h and the half-life [1, 3] was 32 h.

With `COc1ccc2nc([S+]([O-])Cc3ncc(C)c(OC)c3C)n(COP(=O)(O)O)c2c1` (stereo not drawn) [Example 29] the “Inhibition of acid secretion (%)” value (gastric acid secretion; 0,3 μmol/kg iv) was 45 (1) %, the “Inhibition of acid secretion (%)” value (gastric acid secretion; 0,5 μmol/kg iv) was 60 (1) % and the “Inhibition of acid secretion (%)” value (gastric acid secretion; 1 μmol/kg im) was 90 (1) %. For the same compound, the “Inhibition of acid secretion (%)” value (gastric acid secretion; 1 μmol/kg iv) was 80-85 (2) %, the solubility (Solubility in water; water) was over 60 mg/mL and the degraded at 600 h ([1]; aqueous buffer, after 25 days at 22° at the concentration 50 mg/ml, footnote to the pH 9.5 value, read-out: decomposition) was 12%. It also gave a half-life [1, 3] of 74 h and a half-life ([1]; pH 9.5, 37°C, aqueous buffer solution, low concentration, read-out: t 1/2 (hours) pH 9.5) of over 600 h.

With `COc1ccc2c(c1)nc([S+]([O-])Cc1ncc(C)c(OC)c1C)n2COP(=O)(O)O` (stereo not drawn) [Example 32, phosphoric acid, [5-methoxy-[2[[(4-methoxy-3,5-dimethyl-2-pyridinyl)methyl]sulfinyl]-1-H-benzimidazole-1-yl]]methyl ester, disodium salt] the “Inhibition of acid secretion (%)” value (gastric acid secretion; 0,3 μmol/kg iv) was 55 (1) %, the “Inhibition of acid secretion (%)” value (gastric acid secretion; 0,6 μmol/kg iv) was 53 (1) % and the half-life [1, 3] was 51 h.

With `CCOP(=O)(O)OCn1c([S+]([O-])Cc2ncc(C)c(OC)c2C)nc2ccc(OC)cc21` (stereo not drawn) [Example 33] the “Inhibition of acid secretion (%)” value (gastric acid secretion; 1 μmol/kg id) was 97 (1) %, the “Inhibition of acid secretion (%)” value (gastric acid secretion; 4 μmol/kg id) was 98 (1) % and the “t 1/2 (hours) pH 5” value ([1]; pH 5, 37°C, aqueous buffer solution, low concentration) was “No decomp. after 30 h”.

Compound `COc1ccc2c(c1)nc([S+]([O-])Cc1ncc(C)c(OC)c1C)n2COC(=O)CCC(=O)N1CCN(C)CC1` (stereo not drawn) [Example 34] has a half-life ([1]; pH 3, 37°C, aqueous buffer solution, low concentration, read-out: t 1/2 (hours) pH 3 (converted)) of 80 h, a half-life [1, 2] of 100 h and a half-life [1, 3] of 40 h.

Work on `COc1ccc2[nH]c([S+]([O-])Cc3ncc(C)c(OC)c3C)nc2c1` (stereo not drawn) [Omeprazole-Na^⊕] yielded a half-life ([1]; pH 2, 37°C, aqueous buffer solution, low concentration, read-out: t 1/2 (hours) pH 2 (converted)) of 0.07 h, a half-life [1, 2] of 0.04 h and a half-life [1, 3] of 20 h.

`COc1ccc2[nH]c([S+]([O-])Cc3ncc(C)c(OC)c3C)nc2c1` (stereo not drawn) [omeprazole, 5-methoxy-2-[[(4-methoxy 3-5-dimethyl-pyridinyl)methyl]sulfinyl]-1-H-benzimidazole, reference compound] showed a solubility (Solubility in water; at pH 9, a pH considered suitable for i.v. administration, sodium salt, read-out: solubility) of 0.4 mg/mL.
